Assay results taken from the NIST ThermoML archive (doi:10.1016/j.jct.2018.02.025).
“And” between values parts separate entries of the source, which are not always exact repeats. Equal entries are not always repeated.

Conditions: Transpiration method

c1ccc(-c2ccccc2)cc1 [biphenyl]
Conditions	vapor or sublimation pressure
295.4 K, Crystal	0.00091 kPa
298.2 K, Crystal	0.00126 kPa
303.3 K, Crystal	0.00236 kPa
308.2 K, Crystal	0.00383 kPa
313.2 K, Crystal	0.00653 kPa
315.4 K, Crystal	0.00777 kPa
318.3 K, Crystal	0.01045 kPa
323.5 K, Crystal	0.01637 kPa
325.8 K, Crystal	0.02135 kPa
328.4 K, Crystal	0.02749 kPa
331.3 K, Crystal	0.03389 kPa
333.4 K, Crystal	0.0404 kPa
335.8 K, Crystal	0.04928 kPa
338.4 K, Crystal	0.06189 kPa
345.7 K, Liquid	0.1041 kPa
347.7 K, Liquid	0.1176 kPa
348.3 K, Liquid	0.1226 kPa
350.4 K, Liquid	0.1376 kPa
353.3 K, Liquid	0.1597 kPa
358.3 K, Liquid	0.2153 kPa
363.3 K, Liquid	0.2837 kPa
368.2 K, Liquid	0.3498 kPa and 0.3659 kPa
373.1 K, Liquid	0.4791 kPa
375.4 K, Liquid	0.5425 kPa
376.2 K, Liquid	0.5682 kPa
